Laboratory results: ChEMBL document CHEMBL5550194, “Design and synthesis of phosphoryl-substituted steroidal pyridazines (Pho-STPYRs) as potent estrogen receptor alpha inhibitors: targeted treatment of hormone-dependent breast cancer cells” (RSC Med Chem, 2024)
pIC50: −log10 of the molar value. Calls of active or inactive are those of the source. The calls are words filed in the database; no cut-off is given here.

Assays:
MDA-MB-231 = experiment: Antiproliferative activity against human MDA-MB-231 cells assessed as inhibition of cell growth incubated for 72 hrs by MTT assay; type: functional, cell-based; settings: MDA-MB-231, 72 h
MCF7 [1] = experiment: Antiproliferative activity against human MCF7 cells assessed as inhibition of cell growth incubated for 72 hrs by MTT assay; type: functional, cell-based; settings: MCF7, 72 h
[2] = Cytotoxicity against human THP-1 cells assessed as inhibition of cell growth incubated for 72 hrs by MTT assay; type: toxicity, cell-based
Cytochrome P450 7B1 = target: T1, Cytochrome P450 7B1 (Homo sapiens, UniProt O75881); experiment: Binding affinity to recombinant human CYP7B1 by spectrophotometric titration method; type: ADME; settings: recombinant enzyme
T1 sequence (O75881 whole entry): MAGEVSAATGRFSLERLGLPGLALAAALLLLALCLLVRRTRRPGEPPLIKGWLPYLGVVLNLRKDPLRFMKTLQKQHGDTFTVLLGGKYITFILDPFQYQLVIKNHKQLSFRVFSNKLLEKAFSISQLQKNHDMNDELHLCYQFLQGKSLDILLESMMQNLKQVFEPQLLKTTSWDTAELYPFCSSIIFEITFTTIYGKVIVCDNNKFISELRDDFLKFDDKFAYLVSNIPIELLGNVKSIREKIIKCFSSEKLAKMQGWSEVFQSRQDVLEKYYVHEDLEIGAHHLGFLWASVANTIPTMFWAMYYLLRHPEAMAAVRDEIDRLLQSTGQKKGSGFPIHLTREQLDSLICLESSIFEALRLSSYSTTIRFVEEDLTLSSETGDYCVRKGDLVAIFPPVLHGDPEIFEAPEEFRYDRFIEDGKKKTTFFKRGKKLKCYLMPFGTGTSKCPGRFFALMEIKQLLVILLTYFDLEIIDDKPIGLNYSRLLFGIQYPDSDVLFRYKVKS

MCF7 [3] = experiment: Downregulation of CDK4 protein expression in human MCF7 cells at 1.7 to 15 uM measured after 48 hrs by immunoblot analysis; type: functional, cell-based; settings: dose 1.7-15 µM
MCF7 [4] = experiment: Induction of cell death in human MCF7 cells assessed as reduction in Bcl-2 protein expression measured after 48 hrs by immunoblot analysis; type: functional, cell-based; settings: dose 1.7-15 µM
MCF7 [5] = experiment: Downregulation of cyclin D1 protein expression in human MCF7 cells at 1.7 to 15 uM measured after 48 hrs by immunoblot analysis; type: functional, cell-based; settings: dose 1.7-15 µM
MCF7 [6] = experiment: Anti-estrogenic activity in human MCF7 cells assessed as reduction in ERalpha protein expression at 1.7 to 15 uM measured after 48 hrs by immunoblot analysis; type: functional, cell-based; settings: dose 1.7-15 µM
MCF7 [7] = experiment: Anti-estrogenic activity in human MCF7 cells assessed as reduction in GREB1 protein expression at 1.7 to 15 uM measured after 48 hrs by immunoblot analysis; type: functional, cell-based; settings: dose 1.7-15 µM
MCF7 [8] = experiment: Effect on activated AKT protein level in human MCF7 cells at 1.7 to 15 uM measured after 48 hrs by immunoblot analysis; type: functional, cell-based; settings: dose 1.7-15 µM
MCF7 [9] = experiment: Effect on E-cadherin protein expression in human MCF7 cells at 1.7 to 15 uM measured after 48 hrs by immunoblot analysis; type: functional, cell-based; settings: dose 1.7-15 µM
Steroid 21-hydroxylase = target: T2, Steroid 21-hydroxylase (Homo sapiens, UniProt P08686); experiment: Binding affinity to recombinant human CYP21A2 by spectrophotometric titration method; type: ADME; settings: recombinant enzyme
T2 sequence (P08686 whole entry): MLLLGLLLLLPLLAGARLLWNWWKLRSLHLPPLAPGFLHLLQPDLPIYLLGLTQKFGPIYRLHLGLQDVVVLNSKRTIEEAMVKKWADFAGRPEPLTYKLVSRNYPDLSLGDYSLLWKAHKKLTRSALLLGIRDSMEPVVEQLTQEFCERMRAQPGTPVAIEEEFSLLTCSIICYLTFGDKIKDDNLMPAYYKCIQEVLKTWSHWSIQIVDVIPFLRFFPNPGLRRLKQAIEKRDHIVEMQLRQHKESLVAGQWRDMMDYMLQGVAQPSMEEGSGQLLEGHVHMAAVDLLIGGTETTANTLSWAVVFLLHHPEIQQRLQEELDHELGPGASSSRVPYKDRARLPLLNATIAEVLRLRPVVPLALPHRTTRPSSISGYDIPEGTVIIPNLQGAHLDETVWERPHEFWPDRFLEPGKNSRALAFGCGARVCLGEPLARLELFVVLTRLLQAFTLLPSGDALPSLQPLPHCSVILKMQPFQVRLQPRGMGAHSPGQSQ

Cytochrome P450 7A1 = Cytochrome P450 7A1 (Homo sapiens, UniProt P22680); experiment: Binding affinity to recombinant human CYP7A1 by spectrophotometric titration method; type: ADME; settings: recombinant enzyme
MCF7 [10] = experiment: Anti-estrogenic activity in human MCF7 cells transfected with luciferase gene under control of estrogen response elements cotransfected with beta-galactosidase assessed as reduction in 17beta-estradiol induced ERalpha protein expression by measuring reduction in luciferase activity measured after 24 hrs; type: functional, cell-based; settings: dose 1.7-20 µM
Aromatase = target: T3, Aromatase (Homo sapiens, UniProt P11511); experiment: Binding affinity to recombinant human CYP19A1 by spectrophotometric titration method; type: ADME; settings: recombinant enzyme
T3 sequence (P11511 whole entry): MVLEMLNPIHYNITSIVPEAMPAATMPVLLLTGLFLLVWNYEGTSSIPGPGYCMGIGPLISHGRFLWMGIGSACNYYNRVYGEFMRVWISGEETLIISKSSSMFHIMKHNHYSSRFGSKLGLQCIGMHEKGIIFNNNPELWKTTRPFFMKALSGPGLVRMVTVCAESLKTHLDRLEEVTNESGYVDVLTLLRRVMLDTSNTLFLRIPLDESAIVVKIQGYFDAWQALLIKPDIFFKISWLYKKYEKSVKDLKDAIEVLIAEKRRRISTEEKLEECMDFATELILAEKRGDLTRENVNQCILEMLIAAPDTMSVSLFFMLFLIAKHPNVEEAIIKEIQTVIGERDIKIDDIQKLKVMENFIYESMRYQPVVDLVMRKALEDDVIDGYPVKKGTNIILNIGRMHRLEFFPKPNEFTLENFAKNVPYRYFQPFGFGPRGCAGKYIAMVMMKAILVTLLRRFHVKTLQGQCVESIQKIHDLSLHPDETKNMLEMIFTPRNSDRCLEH

[11] = target: T4, Steroid 17-alpha-hydroxylase/17,20 lyase (Homo sapiens, UniProt P05093); experiment: Binding affinity to recombinant human CYP17A1 by spectrophotometric titration method; type: ADME; settings: recombinant enzyme
T4 sequence (P05093 whole entry): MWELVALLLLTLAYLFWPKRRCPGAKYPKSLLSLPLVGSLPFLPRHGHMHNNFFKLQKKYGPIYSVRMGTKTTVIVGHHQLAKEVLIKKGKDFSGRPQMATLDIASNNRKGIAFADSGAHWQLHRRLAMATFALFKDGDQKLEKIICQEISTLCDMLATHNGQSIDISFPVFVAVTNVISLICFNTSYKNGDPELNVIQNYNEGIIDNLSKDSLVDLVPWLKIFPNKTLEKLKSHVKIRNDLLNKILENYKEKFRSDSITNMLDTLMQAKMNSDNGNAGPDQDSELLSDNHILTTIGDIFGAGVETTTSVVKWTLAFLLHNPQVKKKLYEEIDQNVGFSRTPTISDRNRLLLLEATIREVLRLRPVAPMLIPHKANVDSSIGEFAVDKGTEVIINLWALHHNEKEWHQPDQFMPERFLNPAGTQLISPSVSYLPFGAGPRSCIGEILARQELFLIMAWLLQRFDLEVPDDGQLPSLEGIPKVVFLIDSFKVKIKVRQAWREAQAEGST

MCF7 [12] = experiment: Induction of cell death in human MCF7 cells assessed as accumulation of cleaved PARP level at 1.7 to 15 uM measured after 48 hrs by immunoblot analysis; type: functional, cell-based; settings: dose 1.7-15 µM

Chain of Cytochrome P450 7A1 (P22680 whole entry): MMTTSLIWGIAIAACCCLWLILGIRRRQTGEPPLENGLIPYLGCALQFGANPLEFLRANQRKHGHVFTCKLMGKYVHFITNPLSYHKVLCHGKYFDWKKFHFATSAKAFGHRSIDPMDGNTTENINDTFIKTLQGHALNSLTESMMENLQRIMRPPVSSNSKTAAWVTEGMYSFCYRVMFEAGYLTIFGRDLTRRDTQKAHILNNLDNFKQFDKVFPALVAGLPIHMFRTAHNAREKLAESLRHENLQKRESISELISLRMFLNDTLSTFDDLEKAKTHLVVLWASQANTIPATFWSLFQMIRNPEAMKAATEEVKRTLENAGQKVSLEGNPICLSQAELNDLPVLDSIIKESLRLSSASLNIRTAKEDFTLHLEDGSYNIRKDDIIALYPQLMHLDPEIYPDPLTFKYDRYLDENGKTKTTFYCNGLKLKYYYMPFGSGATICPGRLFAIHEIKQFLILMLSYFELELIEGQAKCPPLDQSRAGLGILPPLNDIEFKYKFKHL

SMILES	pIC50 (MDA-MB-231)	pIC50 (MCF7 [1])	further results
C[C@]12CC[C@H]3[C@@H](CCC4Cc5c(cnnc5P(=O)(Nc5ccccc5)Nc5ccccc5)C[C@@]43C)[C@@H]1CC[C@@H]2O (stereo partly drawn)	4.78	5.03	–
C[C@]12CC[C@H](O)CC1=CC[C@@H]1[C@@H]2CC[C@]2(C)c3c(cnnc3P(=O)(c3ccccc3)c3ccccc3)C[C@@H]12	5.13	4.76	–
C[C@]12CC[C@@H]3c4ccc(O)cc4CC[C@H]3[C@@H]1Cc1cnnc(P(=O)(c3ccccc3)c3ccccc3)c12	< 4.60	< 4.60	–
CC(C)(C)NP(=O)(NC(C)(C)C)c1nncc2c1[C@@]1(C)CC[C@H]3[C@@H](CCC4=CC(=O)CC[C@@]43C)[C@@H]1C2	4.68	4.73	–
C[C@]12CC[C@H]3[C@@H](CCC4Cc5c(cnnc5P(=O)(c5ccccc5)c5ccccc5)C[C@@]43C)[C@@H]1CC[C@@H]2O (stereo partly drawn)	5.05	5.15	–
CC(C)(C)NP(=O)(NC(C)(C)C)c1nncc2c1[C@@]1(C)CC[C@H]3[C@@H](CC=C4C[C@@H](O)CC[C@@]43C)[C@@H]1C2	< 4.60	4.61	–
CC(=O)O[C@H]1CC[C@@]2(C)C(=CC[C@@H]3[C@@H]2CC[C@]2(C)c4c(cnnc4P(=O)(NC(C)(C)C)NC(C)(C)C)C[C@@H]32)C1	< 4.60	4.79	–
C[C@]12CC[C@H](O)C[C@@H]1CC[C@@H]1[C@@H]2CC[C@]2(C)c3c(cnnc3P(=O)(Nc3ccccc3)Nc3ccccc3)C[C@@H]12	< 4.60	4.77	–
CC(C)(C)NP(=O)(NC(C)(C)C)c1nncc2c1[C@@]1(C)CC[C@H]3[C@@H](CC[C@H]4C[C@@H](O)CC[C@@]43C)[C@@H]1C2	< 4.60	< 4.60	–
COc1cccc2c1C(=O)c1c(O)c3c(c(O)c1C2=O)C[C@@](O)(C(=O)CO)C[C@@H]3O[C@H]1C[C@H](N)[C@H](O)[C@H](C)O1 [DOXORUBICIN]	6.57	6.55	IC50 at 72 h [2]: 0.045 µM
CC(C)(C)NP(=O)(NC(C)(C)C)c1nncc2c1[C@@]1(C)CC[C@@H]3c4ccc(O)cc4CC[C@H]3[C@@H]1C2	< 4.60	4.65	–
C[C@]12CC[C@H](O)CC1=CC[C@@H]1[C@@H]2CC[C@]2(C)c3c(cnnc3P(=O)(Nc3ccccc3)Nc3ccccc3)C[C@@H]12	< 4.60	4.73	–
C[C@]12CCC(Cl)CC1=CC[C@@H]1[C@@H]2CC[C@]2(C)c3c(cnnc3P(=O)(Nc3ccccc3)Nc3ccccc3)C[C@@H]12 (stereo partly drawn)	< 4.60	< 4.60	–
CC(=O)O[C@H]1CC[C@@]2(C)C(=CC[C@@H]3[C@@H]2CC[C@]2(C)c4c(cnnc4P(=O)(Nc4ccccc4)Nc4ccccc4)C[C@@H]32)C1	< 4.60	< 4.60	–
CC(C)(C)NP(=O)(NC(C)(C)C)c1nncc2c1[C@@]1(C)CC[C@H]3[C@@H](CC=C4CC(Cl)CC[C@@]43C)[C@@H]1C2 (stereo partly drawn)	4.81	4.95	–
C[C@]12CC[C@@H]3c4ccc(O)cc4CC[C@H]3[C@@H]1Cc1cnnc(P(=O)(Nc3ccccc3)Nc3ccccc3)c12	< 4.60	< 4.60	–
COc1ccc2c(c1)CC[C@@H]1[C@@H]2CC[C@]2(C)c3c(cnnc3P(=O)(NC(C)(C)C)NC(C)(C)C)C[C@@H]12	4.78	4.90	–
C[C@]12CCC(=O)C=C1CC[C@@H]1[C@@H]2CC[C@]2(C)c3c(cnnc3P(=O)(c3ccccc3)c3ccccc3)C[C@@H]12	4.74	5.19	Activity (Cytochrome P450 7B1): Not Active; Activity (MCF7 [3]): Active; Activity (MCF7 [4]): Dose-Dependent Effect; Activity (MCF7 [5]): Active; Activity (MCF7 [6]): Active; Activity (MCF7 [7]): inactive; Activity (MCF7 [8]): inactive; Activity (MCF7 [9]): inactive; Activity (Steroid 21-hydroxylase): Not Active; Activity (Cytochrome P450 7A1): Not Active; Activity (MCF7 [10]): Dose-Dependent Effect; Activity (Aromatase): Not Active; Activity [11]: Not Active; Activity (MCF7 [12]): Active
CC/C(=C(\c1ccc(O)cc1)c1ccc(OCCN(C)C)cc1)c1ccccc1 [AFIMOXIFENE]	–	5.28	–
COc1ccc2c(c1)CC[C@@H]1[C@@H]2CC[C@]2(C)c3c(cnnc3P(=O)(c3ccccc3)c3ccccc3)C[C@@H]12	4.87	5.07	–
CC(=O)O[C@H]1CC[C@@]2(C)C(=CC[C@@H]3[C@@H]2CC[C@]2(C)c4c(cnnc4P(=O)(c4ccccc4)c4ccccc4)C[C@@H]32)C1	4.75	4.85	–
COc1ccc2c(c1)CC[C@@H]1[C@@H]2CC[C@]2(C)c3c(cnnc3P(=O)(Nc3ccccc3)Nc3ccccc3)C[C@@H]12	< 4.60	< 4.60	–
